The subject of this test is T1, CYP3A.
T1 construct: gene Cyp3a1; native isoenzyme mixture in liver microsomes of female SD rats
Briefly: UHPLC-MS/MS of 1-hydroxymidazolam formation, cocktail probe, Michaelis-Menten fit. The following applies: liver microsomes of vehicle control rats; cocktail of six substrates together; NADPH regeneration system, pH 7.4, 37 °C.

As usually defined, the Km is the concentration of substrate that gives half-maximal velocity.

Each structure is given as a SMILES string.

Take `Cc1ncc2n1-c1ccc(Cl)cc1C(c1ccccc1F)=NC2` [midazolam]: the Km was 1.99 ± 0.267 µM.
